Laboratory results as given in PubChem BioAssay (NCI).
Several values for one entry are separate records, joined by “and”; a condition that tells them apart may be missing. Equal values may be shown once.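 Cultured in 96-well plates, cells were exposed to test compound for 48 hours across five concentrations. Here, GI50 denotes the concentration required for 50% inhibition of growth. Definition used: TGI = concentration required for complete inhibition of growth.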

Tests used:
Test in all cases: DTP human tumour cell line panel, 48 h
[1] = test system: IGROV1 ovarian
[2] = test system: M14 melanoma
[3] = test system: DMS 273 small cell lung
[4] = test system: XF 498 CNS
[5] = test system: SF-295 CNS
[6] = test system: HL-60(TB) leukemia
[7] = test system: OVCAR-8 ovarian
[8] = test system: SNB-78 CNS
[9] = test system: RXF 393 renal
[10] = test system: OVCAR-4 ovarian
[11] = test system: RPMI-8226 leukemia
[12] = test system: HT29 colon
[13] = test system: A498 renal
[14] = test system: MOLT-4 leukemia
[15] = test system: SNB-19 CNS
[16] = test system: DLD-1 colon
[17] = test system: CCRF-CEM leukemia
[18] = test system: ACHN renal
[19] = test system: A549 NSCLC
[20] = test system: LXFL 529 NSCLC
[21] = test system: SK-OV-3 ovarian
[22] = test system: UACC-257 melanoma
[23] = test system: U251 CNS
[24] = test system: K-562 leukemia
[25] = test system: SNB-75 CNS
[26] = test system: LOX IMVI melanoma
[27] = test system: KM12 colon
[28] = test system: M19-MEL melanoma
[29] = test system: HCT-116 colon
[30] = test system: CAKI-1 renal
[31] = test system: NCI-H460 lung
[32] = test system: OVCAR-3 ovarian
[33] = test system: SF-268 CNS
[34] = test system: UO-31 renal
[35] = test system: HCC-2998 colon
[36] = test system: TK-10 renal
[37] = test system: HOP-62 NSCLC
[38] = test system: SN12C renal
[39] = test system: OVCAR-5 ovarian
[40] = test system: SW-620 colon
[41] = test system: HCT-15 colon
[42] = test system: 786-0 renal
[43] = test system: SK-MEL-5 melanoma
[44] = test system: SK-MEL-2 melanoma
[45] = test system: NCI-H226 lung
[46] = test system: DMS 114 small cell lung
[47] = test system: NCI-H522 lung
[48] = test system: NCI/ADR-RES ovarian
[49] = test system: PC-3 prostate
[50] = test system: MDA-MB-231 breast
[51] = test system: T-47D breast
[52] = test system: MDA-N
[53] = test system: HOP-18 NSCLC
[54] = test system: DU-145 prostate
[55] = test system: MCF7 breast
[56] = test system: HS 578T breast
[57] = test system: MDA-MB-435
[58] = test system: KM20L2 colon

## O=C(OC/C=C1C=C(OC(=O)c2ccccc2)/C(=N/N(C(=O)c2ccccc2)c2ccccc2)O\1)c1ccccc1
[1]
  TGI: 13.3 µM
[2]
  TGI: 18.7 µM
[3]
  TGI: 24.1 µM
[4]
  TGI: 33.7 µM
[5]
  TGI: 21.4 µM
[6]
  GI50: < 0.01 µM
  TGI: 2.29 µM
[7]
  TGI: 23.6 µM
[8]
  TGI: 67.1 µM
[9]
  TGI: 5.58 µM
[10]
  TGI: 22.1 µM
[11]
  TGI: 7.24 µM
[12]
  GI50: 19.8 µM
  TGI: 41.5 µM
[13]
  TGI: 25.6 µM
[14]
  TGI: 14 µM
[15]
  TGI: 23 µM
[16]
  TGI: 10.6 µM
[17]
  TGI: 2.1 µM
[18]
  TGI: 22.5 µM
[19]
  TGI: 22.6 µM
[20]
  TGI: 4.4 µM
[21]
  TGI: 23.6 µM
[22]
  TGI: 19.7 µM
[23]
  TGI: 19.3 µM
[24]
  TGI: 11.8 µM
[25]
  GI50: 18.5 µM
  TGI: 37.9 µM
[26]
  TGI: 14.1 µM
[27]
  TGI: 22.8 µM
[28]
  TGI: 18.8 µM
[29]
  TGI: 18.3 µM
[30]
  TGI: 13.7 µM
[31]
  TGI: 20 µM
[32]
  GI50: 8.35 µM
  TGI: 21.5 µM
[33]
  TGI: 6.85 µM
[34]
  TGI: 0.517 µM
[35]
  TGI: 12.4 µM
[36]
  TGI: 21.8 µM
[37]
  GI50: 18.8 µM
  TGI: 37 µM
[38]
  TGI: 22.7 µM
[39]
  GI50: 15.9 µM
  TGI: 29.5 µM
[40]
  TGI: 22.5 µM
[41]
  TGI: 19.7 µM
[42]
  TGI: 2.95 µM
[43]
  GI50: 19 µM
  TGI: 35.5 µM
[44]
  TGI: 27 µM
[45]
  TGI: 54.1 µM
[46]
  TGI: 28.3 µM

## COc1ccc2c(c[n+](C)c3c4cc5c(cc4ccc23)OCO5)c1OC
[3]
  TGI: 3.72 µM
[47]
  TGI: 3.64 µM
[8]
  TGI: 4.26 µM
[9]
  TGI: > 100 µM
[11]
  TGI: > 100 µM
[12]
  GI50: 1.78 µM and 5.12 µM
[48]
  TGI: > 100 µM
[13]
  GI50: 9.16 µM and 73.7 µM
  TGI: 21.9 µM and > 100 µM
[49]
  TGI: > 100 µM
[50]
  TGI: > 100 µM
[51]
  TGI: > 100 µM
[16]
  TGI: 3.08 µM
[20]
  TGI: 3.35 µM
[52]
  TGI: 44.5 µM
[24]
  GI50: 3.8 µM and 34.1 µM
  TGI: > 100 µM
[27]
  GI50: 2.1 µM and 9 µM
[28]
  TGI: 3.07 µM
[30]
  TGI: 3.63 µM
[53]
  TGI: 4.04 µM
[54]
  TGI: > 100 µM
[55]
  TGI: 79.6 µM
[39]
  GI50: 2.49 µM and 22.8 µM
[56]
  TGI: > 100 µM
[57]
  TGI: 43.8 µM
[58]
  TGI: 3.15 µM
[41]
  TGI: 17.5 µM and > 100 µM
[44]
  TGI: 3.54 µM
[46]
  TGI: 4.71 µM
